Here are results for 8 compounds from ChEMBL document CHEMBL1124550, “Replacement of the 3'-CH group by nitrogen in the carbocyclic analogue of thymidine” (J Med Chem, 1989).

Assay [1] relates to Human alphaherpesvirus 1. Put plainly: Antiviral activity against Herpes simplex virus type 1 (HSV-1) up to 100 uM concentration; inactive. The assay is classed as functional, organism-based.
For assay [2], the system named is MCF7. Put plainly: Antitumor activity against breast carcinoma cell line (MCF-7M). The assay is classed as functional, cell-based. To be noted: Homo sapiens.
Assay [3] has as its system HT-29. Put plainly: Antitumor activity against colon carcinoma cell line (HT-29). In kind it is functional, cell-based. Conditions: Homo sapiens; call rule not given here.
Assay [4] has as its system Human immunodeficiency virus 1. Put plainly: Antiviral activity against Human immunodeficiency virus 1 (HIV-1) up to 100 uM concentration; inactive. In kind it is functional, organism-based.
The subject of assay [5] is SK-MES-1. Put plainly: Antitumor activity against lung carcinoma cell line (SK-MES-1). In kind it is functional, cell-based. Conditions: Homo sapiens.

Molecules are shown by their SMILES.

Broadly, the IC50 is the midpoint of a concentration-inhibition curve. A lower IC50 goes with greater potency. With `Cc1cn([C@@H]2C[C@H](CO)N(O)C2)c(=O)[nH]c1=O`, the IC50 entry in assay [1] was “Not Active”; in assay [2], 80 nM; in assay [3], 14000 nM; in assay [4], “Not Active”; in assay [5], 6910 nM.

Turning to `Cc1cn([C@@H]2C[C@H](CO)N(N=O)C2)c(=O)[nH]c1=O`, the IC50 entry in assay [1] and in assay [4] was “Not Active” each time.

Consider `Cc1cn(C2CNC(CO)C2)c(=O)[nH]c1=O` (centres undefined), for which the IC50 entry in assay [1] and in assay [4] was “Not Active” throughout.

As to `COC(=O)N1CC(n2cc(C)c(=O)[nH]c2=O)C[C@H]1CO` (some centres undefined), the IC50 result in assay [1] and in assay [4] was “Not Active” each time.

In the case of `Cc1cn(C2C[C@@H](CO)N(C=O)C2)c(=O)[nH]c1=O` (some centres undefined), the IC50 entry in assay [1] and in assay [4] was “Not Active” each time.

As for `Cc1cn(C2C[C@@H](CO)N(CCC#N)C2)c(=O)[nH]c1=O` (some centres undefined), the IC50 result in assay [1] and in assay [4] was “Not Active” each time.

`Cc1cn(C2C[C@@H](CO)N(C#N)C2)c(=O)[nH]c1=O` (some centres undefined): the IC50 entry in assay [1] and in assay [4] was “Not Active” in each case.

Take `O=c1[nH]cc(F)c(=O)[nH]1` [FLUOROURACIL]: the IC50 in assay [3] turned out to be 150 nM; in assay [5], 310 nM.
